Experiment [1] concerns IFN-beta, ISG15, CXCL10 transcripts in SKOV3, SKBR3, MCF7, HeLa, B16F10 cells. Nature of the experiment: qRT-PCR transcript levels of interferon-stimulated genes / innate immune response in cancer cell lines. The note with it: cancer cells (Breast, Ovarian, Cervical, Melanoma); same doses bound and unbound. Format: cell-based, human. As for the experimental part: SKOV-3 cells were treated with media alone (CTRL), 125 ng/ml of pI:pC, or 125 ng/mL of poly IC complexed with 250 ng/ml of PhG (poly IC:PhG) for 6 hours. Transcript levels were measured using qRT-PCR.
SKRBR-3 cells were treated with media alone (CTRL), 2.5 μg/mL of pI:pC, or 2.5 μg/mL of poly IC complexed with 5 μg/mL of PhG (poly IC:PhG) for 6 hours. Transcript levels were measured using qRT-PCR.
MCF-7 cells were treated with media alone (CTRL), 5 μg/mL of pI:pC, or 5 μg/mL of poly IC complexed with 10 μg/mL of PhG (poly IC:PhG) for 6 hours. Transcript levels were measured using qRT-PCR.
HeLa cells were treated with media alone (CTRL), 5 μg/mL of pI:pC, or 5 μg/mL of poly IC complexed with 10 μg/mL of PhG (poly IC:PhG) for 6 hours. Transcript levels were measured using qRT-PCR.
Hela cells were treated with media alone (CTRL), 5 μg/mL of pI:pC, or 5 μg/mL of poly IC complexed with 10 μg/mL of PhG (poly IC:PhG) for 6 hours. Transcript levels were measured using qRT-PCR. […]
Cells were plated in 6-well plates at 1×10E6 cells per well in DMEM and allowed to attach overnight. […] All transcripts were normalized to actin and quantified relative to mock treated.
For orientation: Quantitative PCR measures a nucleic acid by following its amplification.

The subject of experiment [2] is pI:pC resistant SKOV-3 cells. Nature of the experiment: Cell viability by alamar blue, carboplatin alone or combined with free or nanoparticle bound pI:pC. Format: cell-based. As to conditions: carboplatin combination, 72 hours. As for the experimental part: Twenty-four (24) hours post seeding, cells were left untreated, or treated with EC50 carboplatin, 125 ng/ml pI:pC, 125 ng/ml pI:pC ionically bound to glycogen nanoparticles (1:1 w/w), or the combination of EC50 carboplatin and 125 ng/ml pI:pC, or EC50 carboplatin and 125 ng/ml nanoparticle bound pI:pC, and cell viability was measured after 72 hours incubation.
Cell viability was measured by alamar blue of pI:pC resistant SKOV-3 cells treated with carboplatin alone, or in combination with “free” pI:pC or glycogen nanoparticle bound pI:pC. SKOV-3 cells were plated in a 12-well dish at 1.5×10^6 per well. Twenty-four (24) hours post seeding, cells were left untreated, or treated with EC50 carboplatin, 125 ng/ml pI:pC, 125 ng/ml pI:pC ionically bound to glycogen nanoparticles (1:1 w/w), or the combination of EC50 carboplatin and 125 ng/ml pI:pC, or EC50carboplatin and 125 ng/ml nanoparticle bound pI:pC. Cells were incubated at 37° C., 5% CO2 for 72 hours, and cell viability was measured by alamar blue assay according to the manufacturer's protocol (Invitrogen).
(Alamar Blue is a resazurin reagent that responds to reducing activity.)

Regarding “polyinosinic:polycytidylic acid [unbound pI:pC]”, the innate immune response result in experiment [1] is listed as “ineffective”. The “sensitization of pI:pC resistant cells to a chemotherapeutic drug” value in experiment [2] is given as “ineffective”.

Source of the values: patent US20250032641A1, “IMMUNE- STIMULATING COMPOUNDS LINKED TO GLYCOGEN-BASED POLYSACCHARIDE NANOPARTICLES FOR SENSITIZING CANCER CELLS TO A CHEMOTHERAPEUTIC DRUG” (GLYSANTIS BIOTECH INC., priority 2020, published 2025).
